Target: 16S A site 27mer RNA
Assay: ESI-FTICR mass spectrometric (MASS) binding assay, 16S A-site 27-mer RNA model
Parameters: species or system prokaryotic
Protocol: The ESI-FTICR mass spectrum depicted in FIG. 26 was acquired from a […] mixture of untagged 16S and tagged 18S in the presence of an equimolar mixture of five aminoglycosides. It is to be understood that other biomolecules may be used in place of the aminoglycosides. The aminoglycosides have been selected from two classes of 2-deoxystreptamines: 4,5-disubstituted (paromomycin, and lividomycin), and 4,6-disubstituted (tobramycin, sisomicin, and bekanamycin), present at 500 nM each. Complexes corresponding to 1:1 binding of individual aminoglycosides were observed between 16S and all members of the aminoglycoside mixture, with the apparent affinities estimated from the abundances of the respective complexes differing substantially. Signal intensities from the complexes with paromomycin (m/z 1925.572) and lividomycin (m/z 1954.790) are consistent with MS-measured dissociation constants of 110 nM and 28 nM, respectively. The intensities of 16S complexes with tobramycin (m/z 1895.960), bekanamycin (m/z 1899.171), and sisomicin (m/z 1891.972) were reduced, consistent with solution dissociation constants of […]. Wang, et al., Biochemistry, 1997, 36, 768-779. […] The spectrum is calibrated using multiple isotope peaks of the (M-5H^+)^5− and (M-4H^+)^4− charge states of the free RNA as internal mass standards which brackets the m/z range in which complexes are observed. The average mass measurement error obtained for the complexes in FIG. 26 is 2.1 ppm when m/z differences are measured between the most abundant (4 ^13C) isotope peak of 16S and each complex. This post calibration scheme is easily automated which enables rapid, high precision mass measurements of affinity selected ligands against multiple targets in a high throughput mode.
A preferred first step of MASS screening involves mixing the RNA target (or targets) with a combinatorial library of ligands designed to bind to a specific site on the target molecule(s). Specific noncovalent complexes formed in solution between the target(s) and any library members are transferred into the gas phase and ionized by ESI. As described herein, from the measured mass difference between the complex and the free target, the identity of the binding ligand can be determined. The dissociation constant of the complex can be determined in two ways: if a ligand with a known binding affinity for the target is available, a relative Kd can be measured by using the known ligand as an internal control and measuring the abundance of the unknown complex to the abundance of the control, alternatively, if no internal control is available, Kd's can be determined by making a series of measurements at different ligand concentrations and deriving a Kd value from the “titration” curve.
Electrospray ionization Fourier transform ion cyclotron resonance mass spectrometry was performed on a solution containing […] 16S RNA (the 27-mer construct shown in FIG. 24) and 500 nM paromomycin is depicted in FIG. 13. A 1:1 complex was observed between the paromomycin and the RNA consistent with specific aminoglycoside binding at the A-site. The insets show the measured and calculated isotope envelopes of the (M-5H+)5− species of the free RNA and the RNA-paromomycin complex. High precision mass measurements were acquired using isotope peaks of the (M-5H+)^5− and (M-4H^+)^4− charge states of the free RNA as internal mass standards and measuring the m/z difference between the free and bound RNA.
ESI-MS measurements of a solution containing a fixed concentration of RNA at different concentrations of ligand were obtained. By measuring the ratio of bound:unbound RNA at varying ligand concentrations, the Kd was determined by 1/slope of the “titration curve”. The MS derived value of 110 nM is in good agreement with previously reported literature value of 200 nM. […]

NC[C@@H]1O[C@H](O[C@H]2[C@@H](O)[C@H](O[C@@H]3[C@@H](O)[C@H](N)C[C@H](N)[C@H]3O[C@H]3O[C@H](CO)[C@@H](O)[C@H](O)[C@H]3N)O[C@@H]2CO)[C@H](N)[C@@H](O)[C@@H]1O [paromomycin]
Kd (ESI-FTICR MS, 16S A site 27mer, read-out: MS-measured dissociation constant (KD)): 0.11 µM
complexes observed with 16S (in words) (aminoglycosides 500 nM each, mixture with untagged 16S and tagged 18S): 1:1 complex and High affinity complexes

Source: patent US6656690B2, “Mass spectrometric methods for biomolecular screening” (priority 1998, dated 2003)
